This note sets out measurements from US7196199B2, “Phenoxypropylamine compounds” (Mitsubishi Pharma Corporation, priority 1999, dated 2007).

Structures can show the parent of a compound that is named as a salt.

For series [1], the target named is T1, 5-HT1A receptor (Rattus norvegicus, UniProt P19327).
T1 sequence (P19327 1-422): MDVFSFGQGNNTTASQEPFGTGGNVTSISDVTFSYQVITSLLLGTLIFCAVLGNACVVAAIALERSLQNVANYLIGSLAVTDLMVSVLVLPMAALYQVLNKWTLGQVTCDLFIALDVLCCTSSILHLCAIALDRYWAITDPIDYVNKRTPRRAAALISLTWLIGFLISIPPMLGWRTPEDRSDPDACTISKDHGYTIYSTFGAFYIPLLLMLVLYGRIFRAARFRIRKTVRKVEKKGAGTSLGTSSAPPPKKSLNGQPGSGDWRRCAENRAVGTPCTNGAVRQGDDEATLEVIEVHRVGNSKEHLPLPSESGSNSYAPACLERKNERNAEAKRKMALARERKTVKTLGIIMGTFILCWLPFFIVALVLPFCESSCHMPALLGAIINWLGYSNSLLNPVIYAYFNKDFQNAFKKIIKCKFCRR
Put plainly: 5-HT1A receptor binding test. To be noted: rat hippocampus membrane, (3H)-8-OH-DPAT 2 nM; read-out: 5-HT1A receptor binding Ki value. How it is done:
The experiment was conducted according to the method of M. D. Hall et al (J. Neurochem. 44, 1685–1696 (1985)).
Cryopreserved rat hippocampus was homogenized in a 20-fold wet weight amount of 50 mM Tris-HCl buffer (pH 7.4), and the homogenate was centrifuged at 500×g for 10 min. The supernatant was centrifuged at 40000×g for 10 min and the sediment was incubated at 37° C. for 10 min, which was followed by centrifugation at 40000×g for 10 min. To the sediment was added a 20-fold amount of 50 mM Tris-HCl buffer (pH 7.4) and the mixture was homogenized, which was followed by centrifugation again at 40000×g for 10 min. 50 mM Tris-HCl buffer (pH 7.4, 100-fold volume) containing 1 mM MnCl2 was added to the sediment and the mixture was homogenized, which was used as a membrane solution. To a 96 well plate were successively added a test solution ([…]), (^3H)-8-OH-DPAT ((±)-8-hydroxy-2-(DL-N-propylamino)tetraline, Sigma, lot No. 57H4131) solution (final concentration 2 nM, […]) and the membrane solution (0.45 ml) preincubated at 37° C., and incubated at 37° C. for 12 min. After completion, the reaction mixture was filtered through a GF/B glass filter and the filter was washed 5 times with 50 mM Tris-HCl buffer (pH 7.4). The radioactivity left on the filter was measured with a Top Count. For total binding measurement, 0.005N hydrochloric acid ([…]) was used, and for the measurement of nonspecific binding, a test solution containing WAY-100635 (final concentration […]) instead of the test substance was used. The total binding and nonspecific binding were measured in quadruplicate, and the test substance was measured in duplicate.
The IC50 value was calculated by two-point interpolation and Ki value was calculated according to the following equation using Kd value obtained from each measurement. Ki=IC50/(1+C/Kd)
IC50: concentration of 50% binding inhibition
C: concentration of ligand

The target in another series is T2, 5-HT transporter (Rattus norvegicus, UniProt P31652).
T2 construct: Rat brain cortex was homogenized using Polytron; from tissue; host or cells: rat brain cortex membranes
T2 sequence (P31652 whole entry): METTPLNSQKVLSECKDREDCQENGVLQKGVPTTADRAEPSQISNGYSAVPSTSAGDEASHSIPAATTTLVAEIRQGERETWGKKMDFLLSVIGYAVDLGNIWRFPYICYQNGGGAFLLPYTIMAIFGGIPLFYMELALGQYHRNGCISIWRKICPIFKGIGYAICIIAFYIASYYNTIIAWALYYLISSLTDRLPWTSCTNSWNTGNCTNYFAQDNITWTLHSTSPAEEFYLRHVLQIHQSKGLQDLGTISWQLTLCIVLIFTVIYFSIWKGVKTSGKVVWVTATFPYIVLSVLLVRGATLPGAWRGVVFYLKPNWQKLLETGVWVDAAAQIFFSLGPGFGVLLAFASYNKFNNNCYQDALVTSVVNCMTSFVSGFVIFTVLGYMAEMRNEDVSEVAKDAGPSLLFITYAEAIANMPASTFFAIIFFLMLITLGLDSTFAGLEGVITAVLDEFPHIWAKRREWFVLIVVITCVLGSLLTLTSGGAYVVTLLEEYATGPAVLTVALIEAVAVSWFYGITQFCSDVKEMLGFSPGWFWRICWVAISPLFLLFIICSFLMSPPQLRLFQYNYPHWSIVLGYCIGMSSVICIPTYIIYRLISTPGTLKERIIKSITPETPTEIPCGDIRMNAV
Put plainly: 5-HT transporter binding test. To be noted: rat brain cortex membrane, (3H) paroxetine 0.2 nmol/L; read-out: 5-HT transporter binding Ki value. Here is the method:
Rat brain cortex was homogenized using Polytron in ice-cooled 50 mmol/L Tris-HCl buffer (pH 7.4). After centrifugation at 1000×g and 4° C. for 10 min, the supernatant was transferred to a different centrifugation tube. This was centrifuged at 40000×g and 4° C. for 20 min, and 50 mmol/L Tris-HCl buffer (pH 7.4) was added to the sediment to give a suspension. This was incubated at 37° C. for 10 min, centrifuged at 40000×g and 4° C. for 20 min, and suspended in 50 mmol/L Tris-HCl buffer (pH 7.4) (diluted 100-fold of brain wet weight) containing 120 mmol/L NaCl and 5 mmol/L KCl, which was used as a membrane solution. For binding inhibition test, it was reacted with (^3H) paroxetine prepared to the final concentration of 0.2 nmol/L in a plastic test tube at 25° C. for 90 min. For total binding, a solvent was used and for nonspecific binding, fluvoxamine having a final concentration of 10 μmol/L was used.
Using a cell harvester, the reaction mixture was filtered through a GF/B glass filter treated with 0.1% polyethyleneimine to stop the reaction and washed 3 times with 3 mL of ice-cooled 50 mmol/L Tris-HCl buffer (pH 7.4). The radioactivity was measured using a β plate.

Series [2] has as its target T1, 5-HT1A receptor. Put plainly: Electrophysical evaluation of agonist/antagonist of 5-HT1A receptor (nystatin perforated patch clamp, dorsal raphe nuclei cell). It counts as cell-based. The arrangement: The isolated nerve cell (dorsal raphe nuclei cell) was subjected to nystatin perforated patch clamp method; endogenous in cells; host or cells: acutely dissociated dorsal raphe nuclei neurons of 2-week-old male Wistar rat. To be noted: 10^−7 mol/L, isolated rat dorsal raphe nuclei cell; for antagonistic action (% of control) of the test substance on the 8-OH-DPAT induced inward K+ current: 8-OH-DPAT 10^−7 mol/L. Here is the method: The experiment followed the method of Katayama et al (Brain Res.; 745, 283–292, 1997).
The brain of 2-week-old male Wistar rat was extracted, and a brain thin section (thickness 350 μm) containing dorsal raphe nuclei was prepared using a microslicer. The brain thin section was treated in Ringer's solution containing pronase (0.4 mg/mL) and protease type X (0.25 mg/mL) at 30° C. for 25 min and 15 min, respectively, and the dorsal raphe nuclei region was micropunched out. The brain thin section punched out was subjected to pipetting in a culture dish filled with the Ringer's solution to isolate the nerve cell. The isolated nerve cell (dorsal raphe nuclei cell) was subjected to nystatin perforated patch clamp method (Akaike & Harata, Jpn. J. Physiol.; 44, 433–437, 1994) and the inward K^+ current induced by the test substance and the like was measured under membrane voltage-clamp condition (VH=−60 mV). For the measurement of the inward K^+ current via the 5-HT1A receptor, an extracellular solution and a patch pipette solution having the following compositions were used simultaneously. • extracellular solution (mmol/L): NaCl, 135; KCl, 20; MgCl2, 1; CaCl2, 2; D-glucose, 10; HEPES, 10; tetrodotoxin, 3×10^−4; LaCl3, 10 • patch pipette solution (mmol/L): KCl, 150; HEPES, 10
To the above-mentioned patch pipette solution was added nystatin. (Sigma, Lot No. 33H0762) to the final concentration of 75 μg/mL before the electric measurement.
The current response was measured with a voltage clamp amplifier (List Medical, L/M-EPC7), and the obtained results were recorded on a chart of a recticorder (Nihondenki Sanei, RECTIHORIZ-8K), digitized by a PCM recording device (NF electric Instruments, RP-882) and videotaped by a VCR (Panasonic, NV-G40).
The administration of the test substance and the like followed a Y-tube method (Murase et al., Brain Res.; 525, 84–91, 1990).
First, 8-OH-DPAT (10^−7 mol/L) was administered to the isolated nerve cell (dorsal raphe nuclei cell) obtained above, and the level of the inward K^+ current response was measured.
8-OH-DPAT was washed out for 2 min from the above-mentioned cells and the test substance and pindolol (reference substance which is an antagonist) were administered for 1 min, and the level of the inward K^+ current response by each of them was measured. From immediately after administration of the test substance or the reference substance, a mixture of 8-OH-DPAT ([…]) and the test substance or reference substance was administered, and the level of the induced inward K^+ current response was measured. The measurement results and the level of the current response in the same cell by 8-OH-DPAT alone were compared, based on which the antagonistic action on the 8-OH-DPAT induction current was considered. Every current response was expressed upon standardizing according to the following calculation equation based on the level of the 8-OH-DPAT (10^−7 mol/L) induction current in the same cell.
The inward K^+ current response inducing action (5-HT1A agonistic action) by the test substance alone was determined from the following equation. inward K^+ current response inducing action (%) by test substance alone=(ITD÷IDPAT)×100 • ITD: level of inward K^+ current response by test substance alone • IDPAT: level of 8-OH-DPAT (10^−7 mol/L) induced inward K^+ current in the same cell
The suppressive effect (5-HT1A antagonistic action) on the 8-OH-DPAT induced inward K^+ current by the test substance was determined according to the following equation. antagonistic action of test substance on 8-OH-DPAT induced inward K^+ current (% of control)=(IMIX÷IDPAT)×100
IMIX: level of 8-OH-DPAT (10^−7 mol/L) induced inward K^+ current in the presence of test substance

`COc1ccc(C2CCN(C[C@H](O)COc3cccc4oc(-c5nnc(C)o5)cc34)CC2)cc1Cl.Cl` came in with a melting point of 218 to 220 °C.
On the same count and under the same terms, the same measure for `Cc1nnc(-c2cc3c(OC[C@@H](O)CN4CCC(c5ccc(Cl)c(C)c5)CC4)cccc3o2)o1.Cl`: 184 to 186 °C; for `Cc1nnc(-c2cc3c(OC[C@@H](O)CN4CCC(c5ccc(Cl)c(F)c5)CC4)cccc3o2)o1.Cl`: 139 to 141 °C.
Same read-out and setting: the same measure for `Cc1nnc(-c2cc3c(OC[C@@H](O)CN4CC=C(c5ccc6ccoc6c5)CC4)cccc3o2)o1.Cl`: 135 to 138 °C; for `C=C(C)c1nnc(-c2cc3c(OC[C@@H](O)CN4CCC(c5ccc6c(c5)OCO6)CC4)cccc3o2)o1.Cl`: 128 to 130 °C.
The same measure, in the same setting: the same measure for `Cc1nnc(-c2cc3c(OC[C@@H](O)CN4CCC(c5ccc(C)c(Cl)c5)CC4)cccc3o2)o1` (as salt: hydrochloride): 188 to 190 °C.
Take `Cc1nnc(-c2cc3c(OC[C@@H](O)CN4CCC(c5ccc6c(c5)CCCS6)CC4)cccc3o2)o1` (as salt: hydrochloride): the melting point is 223 to 225 °C.
Molecule `Cc1nnc(-c2cc3c(OC[C@@H](O)CN4CCC(c5ccc(Cl)c(C(F)(F)F)c5)CC4)cccc3o2)o1` (as salt: hydrochloride) [Example 234, (S)-1-(4-(4-chloro-3-trifluoromethylphenyl)piperidino)-3-(2-(5-methyl-1,3,4-oxadiazol-2-yl)benzo(b)furan-4-yloxy)-2-propanol hydrochloride] came in with a melting point of 222 to 224 °C.
For `CON(C)C(=O)c1cc2c(OC[C@@H](O)CN3CCC(c4ccc5ccccc5c4)CC3)cccc2o1` [Example 6, (S)-4-(2-hydroxy-3-(4-(naphthalen-2-yl)piperidino)propyloxy)-N-methoxy-N-methylbenzo(b)furan-2-carboxamide], the Ki at 5-HT1A receptor [1] came out at 2300 pM. For the same molecule, at 5-HT transporter, the Ki is 1100 pM. Moreover, at 5-HT1A receptor [2], the “antagonistic action (% of control) of the test substance on the 8-OH-DPAT induced inward K+ current” value is listed as “almost nil”, the “agonist/antagonist character at 5-HT1A receptor” value (from here on “agonist/antagonist character”) is “silent antagonists” and the “inward K+ current inducing action (%) by the test substance alone” value (shortened to “inward K+ current inducing action (%)”) was “almost nil”.
With `Cc1nnc(-c2cc3c(OC[C@@H](O)CN4CCC(c5ccc(Cl)c(Cl)c5)CC4)cccc3o2)o1` [Example 88, (S)-1-(4-(3,4-dichlorophenyl)piperidino)-3-(2-(5-methyl-1,3,4-oxadiazol-2-yl)benzo(b)furan-4-yloxy)-2-propanol hydrochloride 1/4 hydrate], the Ki at 5-HT1A receptor [1] came out at 750 pM. Moreover, the Ki at 5-HT transporter came to 320 pM. Besides, on 5-HT1A receptor [2], the “antagonistic action (% of control) of the test substance on the 8-OH-DPAT induced inward K+ current” value is recorded as “almost nil”, the “agonist/antagonist character” value was “silent antagonists” and the “inward K+ current inducing action (%)” value is recorded as “almost nil”.
As to `OCc1nnc(-c2cc3c(OC[C@@H](O)CN4CCC(c5ccc(Cl)c(Cl)c5)CC4)cccc3o2)o1` [Example 136, (S)-3-(4-(3,4-dichlorophenyl)piperidino)-1-(2-(5-hydroxymethyl-1,3,4-oxadiazol-2-yl)benzo(b)furan-4-yloxy)-2-propanol], the Ki on 5-HT1A receptor [1] came to 370 pM. In addition, the Ki at 5-HT transporter worked out at 180 pM. In addition, at 5-HT1A receptor [2], the “antagonistic action (% of control) of the test substance on the 8-OH-DPAT induced inward K+ current” value was “almost nil”, the “agonist/antagonist character” value is given as “silent antagonists” and the “inward K+ current inducing action (%)” value is given as “almost nil”.
As for `Cc1nnc(-c2cc3c(OC[C@@H](O)CN4CC=C(c5ccc6occc6c5)CC4)cccc3o2)o1` [Example 238, (S)-1-(4-(benzo(b)furan-5-yl)-5,6-dihydro-2H-pyridin-1-yl)-3-(2-(5-methyl-1,3,4-oxadiazol-2-yl)benzo(b)furan-4-yloxy)-2-propanol], the melting point fell in the range of 168 to 170 °C.

The melting point is the temperature of the solid-liquid transition. In general, Ki refers to a measure of affinity in units of concentration, obtained from inhibition or displacement.
